Assay results published in US20040166058A1, “Ethylenedicysteine (EC)-drug conjugates, compositions and methods for tissue specific disease imaging” (Board of Regents, The University of Texas System, priority 2002, published 2004).

What was measured:
[1] = tested on: human lung cancer cells (A549 tumor cell line); assay: Biodistribution in lung tumor-bearing nude mice; type: in vivo, athymic nude mice; details: for Biodistribution Blood / Biodistribution Brain / Biodistribution Heart / Biodistribution Intestine / Biodistribution Kidney / Biodistribution Liver / Biodistribution Lung / Biodistribution Muscle / Biodistribution Spleen / Biodistribution Stomach / Biodistribution Thyroid / Biodistribution Tumor / Tumor/Blood / Tumor/Lung / Tumor/Muscle: intravenously
Description: Female athymic nude mice (NCr-nu/nu, NCI, Bethasda, Md.) were inoculated with human lung cancer cells (A549 tumor cell line, 3×10^6 cells/mouse, intramuscular) by one author in the mid-dorsal region. After the tumor reached 6 mm, separate biodistribution studies using ^99mTc-EC-DG and 18F-FDG were conducted. Each received ^99mTc-EC-DG or 18F-FDG intravenously (n=3/time point). The injection activity was 1-3 μCi/mouse. The injected mass of ^99mTc-EC-DG was 0.2 mg/rodent.

[2] = tested on: 13762 tumor cell line mammary tumor; assay: Gamma scintigraphic imaging in Fischer 344 rats with 13762 mammary tumor; type: in vivo; details: 0.5, 2 and 4 hours after i.v. injection of 300 μCi
Description: Female Fischer 344 rats (250-275 g each) (Harlan, Inc., Indianapolis, Ind.) were inoculated with mammary tumor cells by one author from the 13762 tumor cell line (s.c. 10^6 cells/rat, a tumor cell line specific to Fischer rats). After 8-10 days, tumor volumes of 0.3-0.6 cm were measured. Scintigraphic images were obtained 0.5, 2 and 4 hours after i.v. injection of 300 μCi of ^99mTc-EC or ^99mTc-EC-DG (n=3/agent, total 6 rats). ROI between tumor tissue and muscle (at symmetric site) was used to determine tumor/non-tumor ratios. The smallest tumor volume that could be detected by ^99mTc-EC-DG was 3 mm.

[3] = In vitro cell culture of ^99mTc-EC-DG with or without transition chelators; type: cell-based; details: kit formulation
Description: It may also be important to include an antioxidant and a transition chelator in the composition to prevent oxidation of the ethylenedicysteine. For example, the antioxidant may be vitamin C (ascorbic acid). However, other antioxidants known to those of ordinary skill in the art, such as tocopherol, pyridoxine, thiamine, or rutin, may also be used. Any transition chelator known to those of ordinary skill in the art may be used in conjunction with the present invention. Examples of transition chelators include glucoheptonate, gluconate, glucarate, citrate, and tartarate.

SMILES: O=C(NC1C(O)OC(CO)C(O)C1O)C1C[S][99Tc]23(=[O])[S]CC(C(=O)NC4C(O)OC(CO)C(O)C4O)[N]2CC[N]13 (stereo not drawn) [^99mTc-EC-DG]
- Biodistribution Blood ([1]; 30 min): 1.607 ± 0.389 % of injected dose per gram of tissue weight
- Biodistribution Brain ([1]; 30 min): 0.058 ± 0.008 % of injected dose per gram of tissue weight
- Biodistribution Heart ([1]; 30 min): 0.611 ± 0.193 % of injected dose per gram of tissue weight
- Biodistribution Intestine ([1]; 30 min): 0.510 ± 0.093 % of injected dose per gram of tissue weight
- Biodistribution Kidney ([1]; 30 min): 6.726 ± 1.842 % of injected dose per gram of tissue weight
- Biodistribution Liver ([1]; 30 min): 5.674 ± 2.089 % of injected dose per gram of tissue weight
- Biodistribution Lung ([1]; 30 min): 1.048 ± 0.259 % of injected dose per gram of tissue weight
- Biodistribution Muscle ([1]; 30 min): 0.264 ± 0.072 % of injected dose per gram of tissue weight
- Biodistribution Spleen ([1]; 30 min): 3.240 ± 1.709 % of injected dose per gram of tissue weight
- Biodistribution Stomach ([1]; 30 min): 0.540 ± 0.113 % of injected dose per gram of tissue weight
- Biodistribution Thyroid ([1]; 30 min): 0.929 ± 0.212 % of injected dose per gram of tissue weight
- Biodistribution Tumor ([1]; 30 min): 0.787 ± 0.163 % of injected dose per gram of tissue weight
- Tumor/Blood ([1]; 30 min): 0.499 ± 0.022
- Tumor/Lung ([1]; 30 min): 0.769 ± 0.047
- Tumor/Muscle ([1]; 30 min): 3.352 ± 0.749
- Biodistribution Blood ([1]; 2 h): 0.977 ± 0.267 % of injected dose per gram of tissue weight
- Biodistribution Brain ([1]; 2 h): 0.042 ± 0.006 % of injected dose per gram of tissue weight
- Biodistribution Heart ([1]; 2 h): 0.336 ± 0.080 % of injected dose per gram of tissue weight
- Biodistribution Intestine ([1]; 2 h): 0.417 ± 0.110 % of injected dose per gram of tissue weight
- Biodistribution Kidney ([1]; 2 h): 5.687 ± 1.540 % of injected dose per gram of tissue weight
- Biodistribution Liver ([1]; 2 h): 5.807 ± 1.708 % of injected dose per gram of tissue weight
- Biodistribution Lung ([1]; 2 h): 0.721 ± 0.210 % of injected dose per gram of tissue weight
- Biodistribution Muscle ([1]; 2 h): 0.148 ± 0.039 % of injected dose per gram of tissue weight
- Biodistribution Spleen ([1]; 2 h): 4.205 ± 1.374 % of injected dose per gram of tissue weight
- Biodistribution Stomach ([1]; 2 h): 0.439 ± 0.138 % of injected dose per gram of tissue weight
- Biodistribution Thyroid ([1]; 2 h): 0.665 ± 0.207 % of injected dose per gram of tissue weight
- Biodistribution Tumor ([1]; 2 h): 0.415 ± 0.123 % of injected dose per gram of tissue weight
- Tumor/Blood ([1]; 2 h): 0.424 ± 0.022
- Tumor/Lung ([1]; 2 h): 0.587 ± 0.046
- Tumor/Muscle ([1]; 2 h): 2.754 ± 0.120
- Biodistribution Blood ([1]; 4 h): 0.787 ± 0.152 % of injected dose per gram of tissue weight
- Biodistribution Brain ([1]; 4 h): 0.042 ± 0.006 % of injected dose per gram of tissue weight
- Biodistribution Heart ([1]; 4 h): 0.318 ± 0.071 % of injected dose per gram of tissue weight
- Biodistribution Intestine ([1]; 4 h): 0.374 ± 0.073 % of injected dose per gram of tissue weight
- Biodistribution Kidney ([1]; 4 h): 4.318 ± 0.890 % of injected dose per gram of tissue weight
- Biodistribution Liver ([1]; 4 h): 6.656 ± 1.786 % of injected dose per gram of tissue weight
- Biodistribution Lung ([1]; 4 h): 0.606 ± 0.128 % of injected dose per gram of tissue weight
- Biodistribution Muscle ([1]; 4 h): 0.147 ± 0.022 % of injected dose per gram of tissue weight
- Biodistribution Spleen ([1]; 4 h): 5.933 ± 3.194 % of injected dose per gram of tissue weight
- Biodistribution Stomach ([1]; 4 h): 0.541 ± 0.119 % of injected dose per gram of tissue weight
- Biodistribution Thyroid ([1]; 4 h): 0.692 ± 0.119 % of injected dose per gram of tissue weight
- Biodistribution Tumor ([1]; 4 h): 0.414 ± 0.161 % of injected dose per gram of tissue weight
- Tumor/Blood ([1]; 4 h): 0.502 ± 0.120
- Tumor/Lung ([1]; 4 h): 0.640 ± 0.120
- Tumor/Muscle ([1]; 4 h): 2.795 ± 0.982
- tumor/muscle and tumor/brain ratios, ^99mTc-EC-DG versus 18F-FDG ([1]; as a function of time): higher tumor/muscle and tumor/brain ratios
- organs visualized [2]: Heart, kidneys, liver, and bladder were visualized
- stability with or without transition chelators (gluconate and glucarate) [3]: does not interfere with the stability
